How the values were obtained:
[1] = system: IL-1 receptor antagonist (IL-1Ra); details: cartilage culture media; cited from earlier work
IL-1β = details: human OA cartilage and synovial tissue cultures; cited from earlier work
[2] = system: IL-1Ra production in human kidney proximal tubular cell line (HK-2); test: IL-1Ra production in HK-2 cell culture media, ELISA; assay type: cell-based; details: HK-2 cells; for concentration of IL-1Ra: FIG. 1B
Protocol: Human kidney proximal cell line is commercially available and may be purchased, for example, from American Type Culture Collection (ATCC) under the symbol HK-2.
The immortalized human kidney proximal tubular cell line (HK-2) was cultured in DMEM/F12 containing 2.50 g/l HEPES, 1.80 g/l sodium bicarbonate, 100 U/ml penicillin, […] streptomycin, and 10% FCS at 37° C. in 5% CO2. After being digested with 0.25% trypsin, 1×10^5 cells were grown in 50 ml plastic culture bottles. The cells were cultured overnight in DMEM/F12 5% FCS; then, media were changed to fresh DMEM/F12 5% FCS containing diacerin with various concentrations of 2.0 μg/ml, 2.5 μg/ml, 3.0 μg/ml, 5.0 μg/ml, 10 μg/ml, 20 μg/ml, and negative (5% FCS) controls. Cultures were continued for further time points of 0 hour, 0.5 hour, 1 hour, 3 hours, 5 hours, 8 hours, 16 hours, 32 hours, and 72 hours. Upon reaching each time point, the media were collected. The cell culture method is well explained in Yao, et al, Preventive Effects of Salvianolic Acid on Transforming Growth Factorb 1-Induced Epithelial-to-Mesenchymal Transition of Human Kidney Cells, Biol. Pharm. Bull. 2009, 32(5) 882-886.
The collected media at each time point and concentration were assayed for IL-1Ra concentrations using ELISA assays.

INS-1E cells = details: reported in the literature; positive control; cited from earlier work

Compound | IL-1Ra levels [1] | IL-1β production (IL-1β) | concentration of IL-1Ra ([2]; 5 μg/ml diacerin, 16 hours treatment) | concentration of IL-1Ra ([2]; 10 μg/ml diacerin, 16 hours treatment) | concentration of IL-1Ra ([2]; 20 μg/ml diacerin, 16 hours treatment) | concentration at which IL-1Ra production was first observed ([2]; 16 hours treatment) | effect on IL-1Ra production ([2]; 16 hours treatment) | dose-dependent effect on production of IL-1Ra ([2]; 32 hours treatment) | dose-dependent effect on production of IL-1Ra ([2]; 72 hours treatment) | IL-1β-induced INS-1E cell apoptosis (INS-1E cells)
CC(=O)Oc1cccc2c1C(=O)c1c(OC(C)=O)cc(C(=O)O)cc1C2=O [diacerin, 4,5-bis(acetyloxy)-9,10-dioxo-2-anthracene carboxylic acid] | increased | significantly inhibited | approximately 0.8 pg/ml | approximately 1.3 pg/ml | approximately 4.2 pg/ml | 5 µg/mL | dose-dependently increased | diminished | diminished | –
O=C(O)c1cc(O)c2c(c1)C(=O)c1cccc(O)c1C2=O [rhein, 9,10-dihydro-4,5-dihydroxy-9,10-dioxo-2-anthracenecarboxylic acid] | increased | significantly inhibited | – | – | – | – | – | – | – | –
Exendin-4: positive control, reported to inhibit IL-1β-induced INS-1E cell apoptosis | – | – | – | – | – | – | – | – | – | inhibit

Source: patent US20110045522A1, “METHODS FOR DIAGNOSING DIABETES AND DETERMINING EFFECTIVENESS OF TREATMENTS” (priority 2009, published 2011)
